Experimental data: patent US20050070510A1, “Substituted tetracycline compounds as synergistic antifungal agents” (Paratek Pharmaceuticals, Inc., priority 2001, published 2005)

Legend:
[1] = tested on: Candida albicans (ATCC#90028); test: Synergetic antifungal activity with amphotericin B, broth microdilution (NCCLS); type: cell-based; conditions: amphotericin B alone
[2] = tested on: COS-1 cells; test: In vitro mammalian cytotoxicity assay (Resazurin)

| amphotericin B MIC [1] | SMILES | In Vitro Cytotoxicity [2] |
| --- | --- | --- |
| 0.5 µg/mL | C[C@@H]1[C@H](O)[C@@H](C)/C=C/C=C/C=C/C=C/C=C/C=C/C=C/[C@H](O[C@@H]2O[C@H](C)[C@@H](O)[C@H](N)[C@@H]2O)C[C@@H]2O[C@](O)(C[C@@H](O)C[C@@H](O)[C@H](O)CC[C@@H](O)C[C@@H](O)CC(=O)O[C@H]1C)C[C@H](O)[C@H]2C(=O)O [Amphotericin B] | – |
| – | CCCCC#Cc1cc(N(C)C)c2c(c1O)C(=O)C1=C(O)[C@]3(C#N)C(=O)C(C(N)=O)=C(O)[C@@H](N(C)C)[C@]3(N)C[C@]1(N)C2 [LB] | ** (toxicities less than 25 μg/mL are represented by **) |
| – | CN(C)c1cc(NCc2ccc(O)c(O)c2)c(O)c2c1C[C@@]1(N)C[C@@]3(N)[C@H](N(C)C)C(O)=C(C(N)=O)C(=O)[C@@]3(C#N)C(O)=C1C2=O [TY] | * (toxicities greater than >25 μg/ml are represented by *) |
| – | CCCCc1cc(CN)c(O)c2c1C[C@@]1(N)C[C@@]3(N)[C@H](N(C)C)C(O)=C(C(N)=O)C(=O)[C@@]3(C#N)C(O)=C1C2=O [KV] | * (toxicities greater than >25 μg/ml are represented by *) |
| – | CN(C)[C@@H]1C(O)=C(C(N)=O)C(=O)[C@@]2(C#N)C(O)=C3C(=O)c4c(O)c(C(C)(C)C)cc(-c5cnc6ccccc6c5)c4C[C@@]3(N)C[C@@]12N [OV] | * (toxicities greater than >25 μg/ml are represented by *) |
| – | Cc1ncsc1/C=C/c1ccc(O)c2c1C[C@@]1(N)C[C@@]3(N)[C@H](N(C)C)C(O)=C(C(N)=O)C(=O)[C@@]3(C#N)C(O)=C1C2=O [HE] | ** (toxicities less than 25 μg/mL are represented by **) |
| – | CN(C)c1cc(CCc2ccc(F)cc2)c(O)c2c1C[C@@]1(N)C[C@@]3(N)[C@H](N(C)C)C(O)=C(C(N)=O)C(=O)[C@@]3(C#N)C(O)=C1C2=O [KF] | ** (toxicities less than 25 μg/mL are represented by **) |
| – | COC(=O)/C=C/c1cccc(-c2ccc(O)c3c2C[C@@]2(N)C[C@@]4(N)[C@H](N(C)C)C(O)=C(C(N)=O)C(=O)[C@@]4(C#N)C(O)=C2C3=O)c1 [UF] | ** (toxicities less than 25 μg/mL are represented by **) |
| – | CN(C)[C@@H]1C(O)=C(C(N)=O)C(=O)[C@@]2(C#N)C(O)=C3C(=O)c4c(O)ccc(-c5cncnc5)c4C[C@@]3(N)C[C@@]12N [TQ] | * (toxicities greater than >25 μg/ml are represented by *) |
| – | CC#Cc1cc(C#CC)c2c(c1O)C(=O)C1=C(O)[C@]3(C#N)C(=O)C(C(N)=O)=C(O)[C@@H](N(C)C)[C@]3(N)C[C@]1(N)C2 [NI] | ** (toxicities less than 25 μg/mL are represented by **) |
| – | CN(C)[C@@H]1C(O)=C(C(N)=O)C(=O)[C@@]2(C#N)C(O)=C3C(=O)c4c(O)ccc(-c5ccccn5)c4[C@H](N)[C@@]3(N)[C@H](O)[C@@]12N [CN] | * (toxicities greater than >25 μg/ml are represented by *) |
| – | CN(C)[C@@H]1C(O)=C(C(N)=O)C(=O)[C@@]2(C#N)C(O)=C3C(=O)c4c(O)ccc(-c5cccc(C(N)=O)c5)c4C[C@@]3(N)C[C@@]12N [IS] | * (toxicities greater than >25 μg/ml are represented by *) |
| – | CCCC#Cc1ccc(O)c2c1C[C@@]1(N)C[C@@]3(N)[C@H](N(C)C)C(O)=C(C(N)=O)C(=O)[C@@]3(C#N)C(O)=C1C2=O [KA] | ** (toxicities less than 25 μg/mL are represented by **) |
| – | CN(C)c1ccc(NC(=O)NCc2cc(N(C)C)c3c(c2O)C(=O)C2=C(O)[C@]4(C#N)C(=O)C(C(N)=O)=C(O)[C@@H](N(C)C)[C@]4(N)C[C@]2(N)C3)cc1 [ND] | * (toxicities greater than >25 μg/ml are represented by *) |
| – | CN(C)c1cc(NC(=O)NC(=O)c2ccccc2)c(O)c2c1C[C@@]1(N)C[C@@]3(N)[C@H](N(C)C)C(O)=C(C(N)=O)C(=O)[C@@]3(C#N)C(O)=C1C2=O [IK] | * (toxicities greater than >25 μg/ml are represented by *) |
| – | CN(C)[C@@H]1C(O)=C(C(N)=O)C(=O)[C@@]2(C#N)C(O)=C3C(=O)c4c(O)ccc(-c5ccc(CNCc6ccccc6)o5)c4C[C@@]3(N)C[C@@]12N [SS] | ** (toxicities less than 25 μg/mL are represented by **) |
| – | CN(C)[C@@H]1C(O)=C(C(N)=O)C(=O)[C@@]2(C#N)C(O)=C3C(=O)c4c(ccc(NC(=O)Nc5ccc(Cl)cc5C(F)(F)F)c4O)[C@H](N)[C@@]3(N)[C@H]([S+](N)[O-])[C@@]12N (some centres unmarked) [BW] | ** (toxicities less than 25 μg/mL are represented by **) |
| – | CN(C)c1cc(CNC(=O)Nc2ccc(F)cc2)c(O)c2c1C[C@@]1(N)C[C@@]3(N)[C@H](N(C)C)C(O)=C(C(N)=O)C(=O)[C@@]3(C#N)C(O)=C1C2=O [MY] | ** (toxicities less than 25 μg/mL are represented by **) |
| – | CN(C)[C@@H]1C(O)=C(C(N)=O)C(=O)[C@@]2(C#N)C(O)=C3C(=O)c4c(O)ccc(/C=C/c5ccccn5)c4C[C@@]3(N)C[C@@]12N [FA] | ** (toxicities less than 25 μg/mL are represented by **) |
| – | CN(C)[C@@H]1C(O)=C(C(N)=O)C(=O)[C@@]2(C#N)C(O)=C3C(=O)c4c(O)ccc(-c5ccc(C(C)(C)C)cc5)c4C[C@@]3(N)C[C@@]12N [GK] | ** (toxicities less than 25 μg/mL are represented by **) |
| – | CN(C)[C@@H]1C(O)=C(C(N)=O)C(=O)[C@@]2(C#N)C(O)=C3C(=O)c4c(O)ccc(-c5ccc(NC(=O)Nc6ccc(OC(F)(F)F)cc6)cc5)c4C[C@@]3(N)C[C@@]12N [PH] | * (toxicities greater than >25 μg/ml are represented by *) |

| amphotericin B MIC [1] | SMILES | In Vitro Cytotoxicity [2] |
| --- | --- | --- |
| – | Cc1ccc(-c2ccc(O)c3c2C[C@@]2(N)C[C@@]4(N)[C@H](N(C)C)C(O)=C(C(N)=O)C(=O)[C@@]4(C#N)C(O)=C2C3=O)cc1N [PK] | ** (toxicities less than 25 μg/mL are represented by **) |
| – | COc1ccc(-c2ccc(O)c3c2C[C@@]2(N)C[C@@]4(N)C(N(C)C)C(O)=C(C(N)=O)C(=O)[C@@]4(C#N)C(O)=C2C3=O)cc1C=O (some centres unmarked) [QV] | ** (toxicities less than 25 μg/mL are represented by **) |
| – | CN(C)c1cc(NC(=O)CNC(C)(C)C)c(O)c2c1C[C@@]1(N)C[C@@]3(N)[C@H](N(C)C)C(O)=C(C(N)=O)C(=O)[C@@]3(C#N)C(O)=C1C2=O [LC] | * (toxicities greater than >25 μg/ml are represented by *) |
| – | CN(C)[C@@H]1C(O)=C(C(N)=O)C(=O)[C@@]2(C#N)C(O)=C3C(=O)c4c(ccc(NC(=O)OCCBr)c4O)[C@H](N)[C@@]3(N)[C@H](O)[C@@]12N [DD] | ** (toxicities less than 25 μg/mL are represented by **) |
| – | CN(C)c1cc(NCCc2ccccc2)c(O)c2c1C[C@@]1(N)C[C@@]3(N)[C@H](N(C)C)C(O)=C(C(N)=O)C(=O)[C@@]3(C#N)C(O)=C1C2=O [LN] | ** (toxicities less than 25 μg/mL are represented by **) |
| – | CC(=O)NCc1cc(-c2ccccc2)c2c(c1O)C(=O)C1=C(O)[C@]3(C#N)C(=O)C(C(N)=O)=C(O)[C@@H](N(C)C)[C@]3(N)C[C@]1(N)C2 [LJ] | * (toxicities greater than >25 μg/ml are represented by *) |
| – | CCC(NCc1cc(N(C)C)c2c(c1O)C(=O)C1=C(O)[C@]3(C#N)C(=O)C(C(N)=O)=C(O)[C@@H](N(C)C)[C@]3(N)C[C@]1(N)C2)C(F)(F)F (some centres unmarked) [UM] | ** (toxicities less than 25 μg/mL are represented by **) |
| – | CN(C)CC(=O)O[C@H]1[C@@]2(N)C(=C(O)[C@]3(C#N)C(=O)C(C(N)=O)=C(O)[C@@H](N(C)C)[C@]13N)C(=O)c1c(O)cccc1[C@@H]2N [BZ] | ** (toxicities less than 25 μg/mL are represented by **) |
| – | CN(C)c1cc(NCc2ccc(C#N)cc2)c(O)c2c1C[C@@]1(N)C[C@@]3(N)[C@H](N(C)C)C(O)=C(C(N)=O)C(=O)[C@@]3(C#N)C(O)=C1C2=O [TU] | * (toxicities greater than >25 μg/ml are represented by *) |
| – | CN(C)[C@@H]1C(O)=C(C(N)=O)C(=O)[C@@]2(C#N)C(O)=C3C(=O)c4c(O)ccc(-c5cc(F)cc(F)c5)c4C[C@@]3(N)C[C@@]12N [PM] | ** (toxicities less than 25 μg/mL are represented by **) |
| – | CN(C)[C@@H]1C(O)=C(C(N)=O)C(=O)[C@@]2(C#N)C(O)=C3C(=O)c4c(O)c(CN)cc(-c5cccc([N+](=O)O)c5)c4C[C@@]3(N)C[C@@]12N [JP] | * (toxicities greater than >25 μg/ml are represented by *) |
| – | CCCC(C)(C)NC(=O)C1=C(O)[C@@H](N(C)C)[C@]2(N)[C@@H](O)[C@@]3(N)C(=C(O)[C@]2(C#N)C1=O)C(=O)c1c(O)ccc(N(C)C)c1[C@@H]3N [BE] | ** (toxicities less than 25 μg/mL are represented by **) |
| – | CCOc1ccc(-c2ccc(O)c3c2C[C@@]2(N)C[C@@]4(N)[C@H](N(C)C)C(O)=C(C(N)=O)C(=O)[C@@]4(C#N)C(O)=C2C3=O)cc1CN [OR] | * (toxicities greater than >25 μg/ml are represented by *) |
| – | COc1ccc(-c2ccc(O)c3c2C[C@@]2(N)C[C@@]4(N)[C@H](N(C)C)C(O)=C(C(N)=O)C(=O)[C@@]4(C#N)C(O)=C2C3=O)cc1 [QF] | ** (toxicities less than 25 μg/mL are represented by **) |
| – | CCOc1ccc(-c2ccc(O)c3c2C[C@@]2(N)C[C@@]4(N)[C@H](N(C)C)C(O)=C(C(N)=O)C(=O)[C@@]4(C#N)C(O)=C2C3=O)cc1CNC(=O)NC(C)(C)C [QG] | * (toxicities greater than >25 μg/ml are represented by *) |
| – | CCOC(=O)C(C)(/N=N/c1ccc2c(c1O)C(=O)C1=C(O)[C@]3(C#N)C(=O)C(C(N)=O)=C(O)[C@@H](N(C)C)[C@]3(N)[C@@H](O)[C@]1(N)[C@H]2N)C(=O)OCC [DK] | ** (toxicities less than 25 μg/mL are represented by **) |
| – | CN(C)c1cc(C#CC2=CCCC2)c(O)c2c1C[C@@]1(N)C[C@@]3(N)[C@H](N(C)C)C(O)=C(C(N)=O)C(=O)[C@@]3(C#N)C(O)=C1C2=O [KN] | ** (toxicities less than 25 μg/mL are represented by **) |
| – | CN(C)[C@@H]1C(O)=C(C(N)=O)C(=O)[C@@]2(C#N)C(O)=C3C(=O)c4c(O)ccc(CCC5CCCCC5)c4C[C@@]3(N)C[C@@]12N [IX] | ** (toxicities less than 25 μg/mL are represented by **) |
| – | CCCCN(c1ccc2c(c1O)C(=O)C1=C(O)[C@]3(C#N)C(=O)C(C(N)=O)=C(O)[C@@H](N(C)C)[C@]3(N)[C@@H](O)[C@]1(N)[C@H]2N)C1CCN(C)CC1 [RX] | * (toxicities greater than >25 μg/ml are represented by *) |
| – | COc1ccc(NC(=O)Nc2cc(N(C)C)c3c(c2O)C(=O)C2=C(O)[C@]4(C#N)C(=O)C(C(N)=O)=C(O)[C@@H](N(C)C)[C@]4(N)C[C@]2(N)C3)cc1 [IE] | * (toxicities greater than >25 μg/ml are represented by *) |
